Active and inactive are the calls of the source.
Columns and labels:
[1] = inhibitors of intracellular T. cruzi replication, confirmation, NIH3T3 host cells, beta-gal luminescence (AID 2044); format: functional, cell-based;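 note: intracellular parasites grown in NIH/3T3 mouse fibroblasts as host cells; luminescent beta-galactosidase reporter signal from transgenic T. cruzi replicating inside host cells; inhibitors lower the luminescence signal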
[2] = cytotoxicity toward NIH3T3 fibroblasts, dose response, counter-screen, cell-based, ATP luminescence, mouse fibroblasts (AID 2010); format: functional;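 note: cells exposed to compound for about 90 hours before reading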
Trypsin = Trypsin (Sus scrofa, UniProt P00761); assay: porcine trypsin inhibitors, dose response, selectivity assay for Rce1 protease inhibitor project, biochemical, quenched peptide fluorescence, cherry-pick (AID 488789)
Trypsin, sequence (P00761 whole entry): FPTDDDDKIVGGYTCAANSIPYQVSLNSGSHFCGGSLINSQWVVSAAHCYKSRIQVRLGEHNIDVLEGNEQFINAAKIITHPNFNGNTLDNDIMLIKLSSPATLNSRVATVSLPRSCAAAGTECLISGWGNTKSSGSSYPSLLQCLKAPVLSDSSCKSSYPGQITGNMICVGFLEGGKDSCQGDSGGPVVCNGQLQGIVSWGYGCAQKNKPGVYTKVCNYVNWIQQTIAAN

CAAX prenyl protease 1 = CAAX prenyl protease 1 (Saccharomyces cerevisiae S288c, UniProt P47154); assay: Ste24 protease inhibitors, dose response, biochemical, S. cerevisiae, plate reader, cherry-pick (AID 488815)
CAAX prenyl protease 1, sequence (P47154 whole entry): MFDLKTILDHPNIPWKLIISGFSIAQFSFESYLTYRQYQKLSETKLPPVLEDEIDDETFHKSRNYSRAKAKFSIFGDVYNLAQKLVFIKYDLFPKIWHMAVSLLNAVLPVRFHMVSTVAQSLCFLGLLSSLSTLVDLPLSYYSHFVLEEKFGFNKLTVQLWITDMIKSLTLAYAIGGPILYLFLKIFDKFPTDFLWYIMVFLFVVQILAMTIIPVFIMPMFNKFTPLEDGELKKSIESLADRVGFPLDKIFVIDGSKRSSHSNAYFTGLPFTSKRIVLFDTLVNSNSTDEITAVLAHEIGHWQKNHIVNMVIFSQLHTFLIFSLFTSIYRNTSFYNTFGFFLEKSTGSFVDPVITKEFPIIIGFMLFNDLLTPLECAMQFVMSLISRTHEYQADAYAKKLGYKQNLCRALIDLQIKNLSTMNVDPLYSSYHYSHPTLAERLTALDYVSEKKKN

CAAX prenyl protease 2 = biological target: T1, CAAX prenyl protease 2 (Homo sapiens, UniProt Q9Y256); assay: human Rce1 protease inhibitors, dose response, biochemical, yeast membranes, quenched-peptide fluorescence, cherry-pick (AID 588849)
T1 sequence (Q9Y256 whole entry): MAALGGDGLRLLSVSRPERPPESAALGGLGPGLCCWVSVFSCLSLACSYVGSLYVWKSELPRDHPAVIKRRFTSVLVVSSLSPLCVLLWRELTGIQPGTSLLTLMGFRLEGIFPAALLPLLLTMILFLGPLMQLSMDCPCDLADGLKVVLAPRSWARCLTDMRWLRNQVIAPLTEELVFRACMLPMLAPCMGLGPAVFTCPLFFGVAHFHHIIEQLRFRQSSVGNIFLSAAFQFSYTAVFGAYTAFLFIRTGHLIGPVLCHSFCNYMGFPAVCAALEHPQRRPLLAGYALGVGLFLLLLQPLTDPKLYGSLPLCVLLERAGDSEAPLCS

[3] = cytotoxicity in HPDE-C7 cells, cell-based, fluorescence, HTS (AID 430); format: functional; details: Homo sapiens
[4] = cytotoxicity in KRAS-transformed pancreatic duct cells, primary screen, cell-based, fluorescence, HTS (AID 431); format: functional; details: Homo sapiens;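 note: cell line used: HPDE-C7K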
[5] = growth suppression of PTEN-null colon cells, dose response, cell-based, HCT116 PTEN knockout (AID 1047); format: functional;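 note: HCT116 colon tumor cells with PTEN knocked out; cells exposed to compound for 60 hours before readout; potency for loss of cell viability measured by luminescence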
[6] = growth suppression of beta-catenin-knockout colon cells, dose response, cell-based, HCT116, human colon tumor (AID 1045); format: functional;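 note: HCT116 colon tumor cells with beta catenin knocked out; cells exposed to compound for 60 hours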
Jurkat = assay: antigen receptor-induced NF-kB inhibitors, dose response, Jurkat, luciferase reporter, luminescence, B- and T-cell (AID 489004); format: functional, cell-based; details: Homo sapiens;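 note: NF-kB luciferase reporter Jurkat cells stimulated with PMA plus ionomycin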
[7] = cytotoxicity in HEK-293T NF-kB-Luc cells, dose response, cytotoxicity control for B/T-cell NF-kB inhibitor project, cell-based, uHTS hits (AID 489019); format: functional;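 note: IC50 reflects cytotoxicity as loss of cell viability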
Melanocortin receptor 4 = Melanocortin receptor 4 (Homo sapiens, UniProt P32245); assay: MC4R antagonist potency on cAMP, dose response, cell-based, TR-FRET, biased antagonists (AID 602298); format: functional;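 note: antagonist potency against agonist-stimulated cAMP production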
Melanocortin receptor 4, sequence (P32245 whole entry): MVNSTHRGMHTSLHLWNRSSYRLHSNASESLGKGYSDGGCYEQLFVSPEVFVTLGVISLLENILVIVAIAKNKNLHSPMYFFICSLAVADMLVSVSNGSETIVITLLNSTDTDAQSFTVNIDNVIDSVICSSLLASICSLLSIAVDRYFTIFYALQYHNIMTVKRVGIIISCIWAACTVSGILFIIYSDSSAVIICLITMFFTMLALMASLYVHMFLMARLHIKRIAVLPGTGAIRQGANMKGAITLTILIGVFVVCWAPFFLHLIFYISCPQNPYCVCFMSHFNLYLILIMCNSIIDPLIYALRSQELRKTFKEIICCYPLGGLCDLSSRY

[8] = nonselective inhibitors of cellular cAMP signaling, dose response, counter-screen for MC4R biased antagonist project, cell-based, TR-FRET cAMP detection (AID 602305); format: functional;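 note: U2OS cells stimulated with forskolin near its EC80 as the cAMP inducer; potency is for inhibition of forskolin-stimulated cAMP signaling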
HeLa = assay: HeLa cell cytotoxicity, dose response, cytotoxicity control for MITF activator project, CellTiter-Glo luminescence, cherry-pick samples (AID 540259); format: functional, cell-based; details: Homo sapiens
[9] = Luminescence Cell-Based Dose Retest to Confirm Inhibitors of Cancer Stem Cells. [Related pubchem assays (depositor defined):AID2717, AID2721]; format: functional; details: Homo sapiens
[10] = biological target: T2, Ubiquitin-conjugating enzyme E2 N (Homo sapiens, UniProt P61088); format: functional;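 note: Dose-response confirmation in a TR-FRET assay detecting UBC13-driven polyubiquitin chain formation, inhibition measured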
T2 sequence (P61088 whole entry): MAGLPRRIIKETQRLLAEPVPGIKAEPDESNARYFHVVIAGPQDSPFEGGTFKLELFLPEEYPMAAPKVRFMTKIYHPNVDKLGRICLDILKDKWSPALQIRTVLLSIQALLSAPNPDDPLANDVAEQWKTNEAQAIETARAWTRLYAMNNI

[11] = biological target: T3, Replicative DNA helicase DnaB (Mycobacterium tuberculosis, UniProt P9WMR3); assay: DnaB intein splicing inhibitors, dose response, biochemical, cell-free fluorescence (AID 449749); format: functional
T3 sequence (P9WMR3 whole entry): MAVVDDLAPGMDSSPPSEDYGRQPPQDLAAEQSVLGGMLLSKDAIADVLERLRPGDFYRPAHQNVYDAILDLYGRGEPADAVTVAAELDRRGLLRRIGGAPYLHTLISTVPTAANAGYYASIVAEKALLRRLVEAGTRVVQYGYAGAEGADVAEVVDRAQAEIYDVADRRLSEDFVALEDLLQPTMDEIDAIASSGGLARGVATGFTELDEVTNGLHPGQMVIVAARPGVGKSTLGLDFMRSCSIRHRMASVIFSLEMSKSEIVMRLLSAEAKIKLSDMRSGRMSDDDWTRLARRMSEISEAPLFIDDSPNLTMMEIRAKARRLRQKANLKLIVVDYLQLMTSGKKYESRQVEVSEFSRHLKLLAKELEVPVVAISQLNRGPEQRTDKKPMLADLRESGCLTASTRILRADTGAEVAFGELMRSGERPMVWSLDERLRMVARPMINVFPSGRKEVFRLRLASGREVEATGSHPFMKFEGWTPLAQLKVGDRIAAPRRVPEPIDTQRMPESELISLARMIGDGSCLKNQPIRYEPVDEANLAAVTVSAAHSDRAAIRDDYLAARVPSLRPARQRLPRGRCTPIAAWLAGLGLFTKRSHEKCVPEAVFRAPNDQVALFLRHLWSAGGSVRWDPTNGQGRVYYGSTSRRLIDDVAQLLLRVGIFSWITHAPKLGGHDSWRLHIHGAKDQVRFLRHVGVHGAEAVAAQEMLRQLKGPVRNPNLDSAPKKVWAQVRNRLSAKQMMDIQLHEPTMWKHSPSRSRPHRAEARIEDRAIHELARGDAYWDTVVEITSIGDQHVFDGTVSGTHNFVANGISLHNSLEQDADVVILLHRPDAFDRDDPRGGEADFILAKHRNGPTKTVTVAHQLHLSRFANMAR

Protein RecA = biological target: T4, Protein RecA (Mycobacterium tuberculosis, UniProt P9WHJ3); assay: Fluorescence Cell-Free Homogeneous Dose Retest to Identify Inhibitors of RecA-Intein Splicing Activity. [Related pubchem assays (depositor defined):AID2097, AID2223, AID489010, AID492950]; format: functional
T4 sequence (P9WHJ3 whole entry): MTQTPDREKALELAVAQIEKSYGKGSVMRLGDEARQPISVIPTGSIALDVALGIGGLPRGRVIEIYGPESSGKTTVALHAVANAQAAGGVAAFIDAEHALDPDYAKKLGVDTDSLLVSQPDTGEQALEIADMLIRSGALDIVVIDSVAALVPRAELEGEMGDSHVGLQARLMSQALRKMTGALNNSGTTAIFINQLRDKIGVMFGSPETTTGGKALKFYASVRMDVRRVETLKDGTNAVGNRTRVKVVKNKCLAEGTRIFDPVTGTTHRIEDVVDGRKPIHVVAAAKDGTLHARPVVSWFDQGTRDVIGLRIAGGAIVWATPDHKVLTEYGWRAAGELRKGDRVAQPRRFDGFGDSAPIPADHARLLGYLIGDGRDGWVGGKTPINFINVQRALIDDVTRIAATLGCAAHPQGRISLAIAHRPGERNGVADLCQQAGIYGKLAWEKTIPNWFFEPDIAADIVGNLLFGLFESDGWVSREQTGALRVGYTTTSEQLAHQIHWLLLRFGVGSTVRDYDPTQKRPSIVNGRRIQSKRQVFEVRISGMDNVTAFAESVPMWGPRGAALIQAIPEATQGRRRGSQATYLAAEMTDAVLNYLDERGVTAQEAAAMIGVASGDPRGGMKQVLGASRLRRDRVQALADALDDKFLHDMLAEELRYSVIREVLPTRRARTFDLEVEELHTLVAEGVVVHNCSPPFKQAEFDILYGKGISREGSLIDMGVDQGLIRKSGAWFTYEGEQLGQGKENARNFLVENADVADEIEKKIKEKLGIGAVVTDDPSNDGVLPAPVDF

In the case of CCc1ccc(NC(=O)c2cnc(N3CCN(c4ccccn4)CC3)c3ccccc23)cc1, the EC50 [1] is reported as 3.14 µM (active), the EC50 [2] is reported as > 30 µM (not active) and the AC50 (Trypsin) is reported as 87.7 µM (active). The AC50 (CAAX prenyl protease 1) was 9.95 µM (active) and the AC50 (CAAX prenyl protease 2) was 29.7 µM (active).

With N=c1c2c(-c3ccccc3)c(-c3ccccc3)n(Cc3ccccc3)c2ncn1CCCn1ccnc1 the EC50 [3] was 5.47 µM (active), the EC50 [1] was 2.44 µM (active) and the EC50 [4] was 17 µM (active). For the same compound, the EC50 [5] was 0.85 µM (active), the EC50 [2] was 7.16 µM (active) and the EC50 [6] was 0.613 µM (active). For the same compound, the IC50 (Jurkat) was 8.3 µM (active), the IC50 [7] was 43.2 µM (inactive) and the IC50 (Melanocortin receptor 4) was > 64.6 µM (inactive). For the same compound, the IC50 [8] was > 64.6 µM (inactive).

For O=C(N/C=C/c1ccccc1)c1ccccc1, the AC50 (HeLa) was 206 µM (active).

In the case of CCN(Cc1ccccc1)S(=O)(=O)c1ccc(C(=O)N(CCCN(C)C)c2nc3cc(C)cc(C)c3s2)cc1, the AC50 [9] is reported as 4.44 µM (active), the IC50 [10] is reported as > 20 µM (inactive) and the AC50 (CAAX prenyl protease 1) is reported as 17 µM (active). For the same compound, the AC50 [11] was 7.04 µM (active) and the EC50 (Protein RecA) was 17.7 µM (active).
